Measured values as given in paper PMC8791944, “GLUT3 inhibitor discovery through in silico ligand screening and in vivo validation in eukaryotic expression systems” (Scientific Reports, 2022).
“And” between values parts separate entries of the source, which are not always exact repeats. Identical values can stand only once. “Also recorded” adds a separate entry of the source. Like-named read-outs stand apart in the source and are kept apart here.

Target: T1, GLUT3S66Y (Homo sapiens, UniProt P11169, S66Y)
T1 construct: expressed in transfected cells; host or cells: Saccharomyces cerevisiae hxt0 strain EBY.S7 (fgy1)
T1 sequence (P11169 1-496 S66Y): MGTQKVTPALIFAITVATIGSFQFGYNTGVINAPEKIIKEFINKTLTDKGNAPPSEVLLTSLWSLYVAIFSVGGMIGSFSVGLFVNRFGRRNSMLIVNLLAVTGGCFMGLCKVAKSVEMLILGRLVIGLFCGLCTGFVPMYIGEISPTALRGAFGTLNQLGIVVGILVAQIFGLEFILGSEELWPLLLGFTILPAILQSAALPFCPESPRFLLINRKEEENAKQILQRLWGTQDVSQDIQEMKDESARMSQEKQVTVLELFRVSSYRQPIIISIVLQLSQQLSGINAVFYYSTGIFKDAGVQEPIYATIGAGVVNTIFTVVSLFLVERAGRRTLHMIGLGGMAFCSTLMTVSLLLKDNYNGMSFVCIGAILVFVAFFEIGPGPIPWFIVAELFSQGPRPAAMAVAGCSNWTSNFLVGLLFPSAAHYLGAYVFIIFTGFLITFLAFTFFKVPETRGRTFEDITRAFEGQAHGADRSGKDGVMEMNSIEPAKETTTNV
Experiment: Glucose transport assay, GLUT3S66Y expressed in hxt^0 yeast cells EBY.S7
Assay type: cell-based
Details: for Inhibition mode in GLUT3: Dixon plots, versus glucose; for Ki: Ki for GLUT3 inhibition (Dixon plot), Dixon plots with GLUT3S66Y at 0.75, 1.50 and 3.00 mM glucose, competitive with glucose
Text: We determined GLUT3 transport activity by measuring the accumulation of radioactive glucose inside whole hxt^0 yeast cells (see “Materials and methods” for details). To select an appropriate substrate concentration for transport inhibition screening, we assessed the KM of glucose for GLUT3 in hxt^0 cells. […] Indeed, functional expression of human GLUTs in hxt^0 cells often requires mutations in genes related to yeast lipid composition[65],[73] as well as single-site mutations that may favor the outward-facing conformation of the transporters[65]–[67].
The plasmids containing functional constructs of GLUT1-5 were transformed in the corresponding hxt^0 strains[65],[66],[73] (EBY.VW4000 for GLUT5S72Y, EBY.S7 for GLUT1, GLUT2∆loopS_Q455R, GLUT3 and GLUT3S66Y, and SDY.022 for GLUT4) and grown on 2% (w/v) agar plates of the respective media supplemented with 1% (w/v) maltose. An initial culture of ~ 10 ml was started with a few colonies and grown for 2–3 days if the media was SC-uracil with 1% (w/v) maltose (GLUT1, GLUT3, GLUT4) or 1–2 days if the media was YEP with 1% (w/v) maltose and 100 µg/ml geneticin G418 (GLUT2∆loopS_Q455R and GLUT5S72Y). Cells were washed once in the corresponding media in which maltose was substituted with 0.1–2% hexose substrate for the expressing GLUT (i.e., SC-uracil, 2% (w/v) glucose for GLUT1; SC-uracil, 0.2% (w/v/) glucose for GLUT3 and GLUT4; YEP, 0.2% (w/v) glucose, 100 µg/ml geneticin G418 for GLUT2∆loopS_Q455R, and YEP, 2% (w/v) fructose for GLUT5 S72Y). Then, cells were transferred in the same media so that OD600nm ~ 0.5 and grown further for 1–2 days.
For transport activity assay, cells in the hexose media were centrifuged (1000×g, 5 min, room temperature), washed once with PBS buffer (10 mM Na2HPO4, 1.8 mM KH2PO4, 2.7 mM KCl, 137 mM NaCl, pH 7.4), and resuspended in PBS buffer at an OD600nm ~ 10; each assay contained 100 µl of this cell solution. Transport activity assay was started by adding C^14-hexose at a substrate concentration corresponding to the respective KM (5 mM glucose for GLUT1 or GLUT4, 3 mM glucose for GLUT3 or 1.5 mM glucose for GLUT3S66Y, 15 mM glucose for GLUT2∆loopS_Q455R, and 10 mM fructose for GLUT5S72Y); for determining the glucose KM in GLUT3 and GLUT3S66Y, substrate concentrations were varied accordingly. […] The filtration membranes were transferred into scintillation vials with 10 ml of Scintillation Solution (BioSafeII; Research Products International, Mount Prospect, IL, USA), and vortexed briefly. The radioactivity was determined with a scintillation counter (Tri-carb 2900TR, Perkin Elmer, USA). As all compounds were solubilized in dimethyl sulfoxide (DMSO), controls for determining the relative transport activity included 1% (v/v) DMSO to represent DMSO used as vehicle control (i.e., 100% activity), and known inhibitors at saturating concentrations, 200 µM phloretin for GLUT1-4[69],[82], and 100 µM N-[4-(methylsulfonyl)-2-nitrophenyl]-1,3-benzodioxol-5-amine (MSNBA) for GLUT5 (i.e., complete inhibition). […] Data were analyzed with GraphPad Prism (San Diego, CA, USA).
Supplementary Figure S3. Dose response curves for G3iA-G3iF inhibition of GLUT3S66Y. […] Error bars represent standard deviations from at least three independent measurements. Graphs, data analysis, and IC50 values were generated with GraphPad (www.graphpad.com).
Inhibition mode of G3iA, G3iC, and G3iE in GLUT3. (A-C) Dixon plots^2 for GLUT3S66Y inhibition by G3iA, G3iC, and G3iE, respectively.

| Compound | IC50 | Inhibition mode in GLUT3 | Inhibition mode in GLUT3 (listed as G2iA) | Ki | IC50 (read-out: IC50 for GLUT3S66Y transport inhibition) |
| --- | --- | --- | --- | --- | --- |
| CC(=O)Nc1ccc(S(=O)(=O)Nc2ccc(Nc3cc(N(C)C)nc(C)n3)cc2)cc1 [G3iA, N-(4-{[(4-{[6-(dimethylamino)-2-methylpyrimidin-4-yl]amino}phenyl)amino]sulfonyl}phenyl)acetamide] | 6.21 ± 0.95 µM | competitive inhibition with glucose | competitive inhibition mode | 3.49 µM and ~3.5 µM |  |
| Cc1cccnc1OC1CCN(c2cc(N3CCCC3CO)ncn2)CC1 (stereo not shown) [G3iC] | 10.1 ± 2.1 µM | competitive inhibition with glucose; also recorded: competitive inhibition mode |  | 5.83 ± 0.3 µM |  |
| Cc1cc(NC(=O)CCC2Cc3ccccc3NC2=O)nc(-c2ccccc2)n1 (stereo not shown) [G3iD] | 12.6 ± 1.6 µM |  |  |  |  |
| O=C(Nc1cccc(Cl)c1)c1cccc(NC(=O)c2cccc([N+](=O)[O-])c2)c1 [G3iE, N-{3-[(3-chloroanilino)carbonyl]phenyl}-3-nitrobenzamide] | 20.6 ± 2.4 µM | competitive inhibition with glucose; also recorded: competition with glucose; also recorded: competitive inhibition mode |  | 12.3 ± 0.9 µM |  |
| COc1ccccc1-n1c(/C=C/c2ccc(O)cc2)nc2ccc(Br)cc2c1=O [G3iB, 6-bromo-2-[(E)-2-(4-hydroxyphenyl)ethenyl]-3-(2-methoxyphenyl)quinazolin-4(3H)-one] |  |  |  |  | 9.62 ± 1.17 µM |
| Cc1ccccc1CN(Cc1nnc(C(C)(C)C)o1)c1ccc2nc(O)[nH]c2c1 [G3iF] | 24.8 ± 6 µM |  |  |  |  |
